From US20250296938A1, “Compounds that Interact with the Ras Superfamily for the Treatment of Cancers, Inflammatory Diseases, Rasopathies, and Fibrotic Disease” (SHY Therapeutics, LLC, priority 2018, published 2025)

Tested on: MIA PaCa-2 pancreatic cancer cell line
Assay: Cell proliferation assay (DAPI)
Format: cell-based
Conditions: Homo sapiens, MIA PaCa-2; for inhibition at 10 µM: 2-4 days, read-out: % Inhibition of cell proliferation, MIA PaCa-2 % inh
Description: Cell lines: Human NSCLC cells NCI-H1975 and NCI-H1299, and tumor-derived pancreatic cancer cell lines Panc-1, MIA-PACA2, and BxPC3, were all purchased from American Type Culture Collection and grown in complete RPMI medium (BxPC3, NCI-H1975 and NCI-H1299) or DMEM-High Glucose (Panc1 and MIA-PaCa-2), supplemented with penicillin (100 U/mL), streptomycin (100 μg/mL), and 10% heat-inactivated FBS at 37° C. in a humidified incubator with 5% CO2.
Method: Cells were plated at 2000 to 5000 cells/well density in 96-wells plate and cultured ON. Small molecules to be tested were added to the cells in the final concentration of 10 µM in the presence of 0.3% DMSO and 10% FBS, and incubated for 2-4 days at 37° C. in a humidified incubator with 5% CO2. For IC50 value determination, serial dilutions of compounds were added to cells under the same conditions.
Assay: At the end of the incubation period, cell cultures were fixed with a 50-50 mixture (v/v) acetone-methanol for 10 minutes at −20° C., followed by rehydration in PBS for 10 minutes at room temperature. DNA total content was determined by staining cells with DAPI (1 ug/ml) in PBS for 10 minutes at room temperature, followed by 3 washes with PBS. After staining, DAPI fluorescence was recorded (358 nm excitation/461 nm emission) with the 96-well plate reader Molecular Devices Spectramax M3; degree of small molecule-dependent proliferation inhibition was calculated from raw data.

Row | Compound | IC50 | inhibition at 10 µM
1 | COCC(C)Nc1nc(-c2nccn2C)nc2sc(-c3ccn(C)n3)c(-c3ccc(OC)cc3)c12 (centres unmarked) [drawing 554] | > 1000 nM | 76 to 100%
2 | COc1ccc(-c2c(-c3ccn(C)n3)sc3nc(-c4nccn4C)nc(N4CCC(OC)C4)c23)cc1 (centres unmarked) [drawing 555] | > 1000 nM | 76 to 100%
3 | COC1CCN(c2nc(-c3nccn3C)nc3sc(-c4ccccc4Cl)c(-c4cscn4)c23)C1 (centres unmarked) [drawing 557] | – | 76 to 100%
4 | COc1cccc(-c2sc3nc(-c4nccn4C)nc(N4CCC(OC)C4)c3c2-c2cscn2)c1 (centres unmarked) [drawing 559] | > 1000 nM | 76 to 100%
5 | COCCNc1nc(-c2nccn2C)nc2sc(-c3cc(OC)ccc3Cl)c(-c3ccc(OC)cc3)c12 [drawing 563] | > 1000 nM | 76 to 100%
6 | COCCNc1nc(-c2cn(C)cn2)nc2sc(-c3cccc(OC)c3Cl)c(-c3ccc(OC)cc3)c12 [drawing 565] | – | 76 to 100%
7 | COCCNc1nc(-c2cn(C)cn2)nc2sc(-c3cc(OC)ccc3Cl)c(-c3ccc(OC)cc3)c12 [drawing 566] | – | 76 to 100%
8 | COCCNc1nc(-c2nccn2C)nc2sc(-c3cc(OC)ccc3Cl)c(-c3ccccc3)c12 [drawing 568] | > 1000 nM | 76 to 100%
9 | COc1cc(-c2sc3nc(-c4nccn4C)nc(N4CCC(OC)C4)c3c2-c2ccccc2)ccn1 (centres unmarked) [drawing 569] | – | 76 to 100%
10 | COC1CCN(c2nc(-c3nccn3C)nc3sc(-c4ccnn4C)c(-c4ccccc4)c23)C1 (centres unmarked) [drawing 570] | – | 26 to 50%
11 | COC1CCN(c2nc(-c3nccn3C)nc3sc(-c4cccnc4)c(-c4ccccc4)c23)C1 (centres unmarked) [drawing 571] | – | 76 to 100%
12 | COc1ccc(-c2sc3nc(-c4nccn4C)nc(N4CCC(OC)C4)c3c2-c2ccccc2)cn1 (centres unmarked) [drawing 572] | – | 76 to 100%
13 | COc1ncccc1-c1sc2nc(-c3nccn3C)nc(N3CCC(OC)C3)c2c1-c1ccccc1 (centres unmarked) [drawing 573] | – | 76 to 100%
14 | COC1CCN(c2nc(-c3nccn3C)nc3sc(-c4cnc(C5CC5)o4)c(-c4ccccc4)c23)C1 (centres unmarked) [drawing 574] | – | 76 to 100%
15 | COCCn1cc(-c2sc3nc(-c4nccn4C)nc(N4CCC(OC)C4)c3c2-c2ccccc2)cn1 (centres unmarked) [drawing 575] | – | 76 to 100%
16 | COC1CCN(c2nc(-c3nccn3C)nc3sc(-c4ccncc4C)c(-c4ccccc4)c23)C1 (centres unmarked) [drawing 576] | – | 76 to 100%
17 | COC1CCN(c2nc(-c3nccn3C)nc3sc(-c4cnn(C)c4)c(-c4ccccc4)c23)C1 (centres unmarked) [drawing 577] | – | 76 to 100%

Row | Compound | IC50 | inhibition at 10 µM
18 | COC1CCN(c2nc(-c3nccn3C)nc3sc(-c4ccc(CO)cc4)c(-c4ccccc4)c23)C1 (centres unmarked) [drawing 578] | – | 76 to 100%
19 | COC1CCN(c2nc(-c3nccn3C)nc3sc(-c4ccc(N)nc4C)c(-c4ccccc4)c23)C1 (centres unmarked) [drawing 579] | – | 76 to 100%
20 | COC1CCN(c2nc(-c3nccn3C)nc3sc(-c4ccccc4CO)c(-c4ccccc4)c23)C1 (centres unmarked) [drawing 580] | – | 76 to 100%
21 | COc1nscc1-c1sc2nc(-c3nccn3C)nc(N3CCC(OC)C3)c2c1-c1ccccc1 (centres unmarked) [drawing 581] | – | 76 to 100%
22 | COC1CCN(c2nc(-c3nccn3C)nc3sc(-c4ccnc(N(C)C)c4)c(-c4ccccc4)c23)C1 (centres unmarked) [drawing 582] | – | 76 to 100%
23 | COC1CCN(c2nc(-c3nccn3C)nc3sc(Br)c(-c4ccccc4)c23)C1 (centres unmarked) [drawing 583] | – | 76 to 100%
24 | COc1ccc(-c2c(-c3cccc(OC)c3F)sc3nc(-c4nccn4C)nc(N4CCC(OC)C4)c23)cc1 (centres unmarked) [drawing 584] | – | 76 to 100%
25 | COCC1CN(c2nc(-c3nccn3C)nc3sc(-c4cccc(OC)c4F)c(-c4ccc(OC)cc4)c23)C1 [drawing 585] | – | 76 to 100%
26 | COc1cccc(-c2sc3nc(-c4nccn4C)nc(N4CCC(OC)C4)c3c2-c2ccccc2)c1F (centres unmarked) [drawing 586] | – | 76 to 100%
27 | COc1c(O)nc(-c2ccccn2)nc1Oc1cnn(C)c1 [drawing 587] | – | 0%
28 | COc1c(O)nc(-c2ccccn2)nc1Oc1ccc2ncccc2c1 [drawing 588] | – | 1 to 25%
29 | COc1c(O)nc(-c2ccccn2)nc1Oc1cccnc1 [drawing 589] | – | 0%
30 | COc1cccc(Oc2nc(-c3ccccn3)nc(O)c2OC)c1 [drawing 590] | – | 0%
31 | COc1ccc(Oc2nc(-c3ccccn3)nc(O)c2OC)cc1 [drawing 591] | – | 26 to 50%
32 | COCCc1ccc(Oc2nc(-c3ccccn3)nc(O)c2OC)cc1 [drawing 592] | – | 76 to 100%
33 | COc1c(O)nc(-c2ccccn2)nc1Oc1ccccc1 [drawing 593] | – | 76 to 100%
